Consider 3 molecules from patent publication US20260315431A1, “NANOMATERIAL ENCAPSULATED BIOFILM INHIBITORS FOR DENTAL CARIES TREATMENT” (THE UAB RESEARCH FOUNDATION, priority 2023, published 2026).

The nature of data set [1]: Body weight of animals, HEBI / HA5 study. Type of data set: in vivo, Fischer 344 rats. As to conditions: for Weight: 100 μM (NaF 250 ppm), 4 weeks. As to the method:
Rat model of dental caries. In vivo studies of colonization and virulence of S. mutans were evaluated using a previously reported rat model of dental caries^71. Offspring of gnotobiotic Fischer 344 rats used in this experiment were bred and maintained in trexler isolators. Male and female rat pups were removed from isolators at 20 days of age and randomly assigned into 5 treatment groups of 5 rats/group in cages with filter tops. Rats were then infected with S. mutans UA159 strain by oral swabbing daily for four consecutive days with a fresh overnight culture of S. mutans UA159. Rats were provided with caries promoting Teklad Diet 305 containing […] (Harlan Laboratories, Inc., Indianapolis, IN) and sterile drinking water ad libitum. Oral swabs were taken 5 days post-infection and plated on Todd Hewitt (TH) agar plates and incubated at 37° C. in an environment of 5% CO2 in the air to confirm colonization. Rats were weighed at weaning and at the termination of the experiment. One-week post-infection, the molars of the rats were treated topically twice daily for 4 weeks with the test compounds using camel-hair brushes. […] Each sample was serially diluted, plated on blood agar plates (BAP) and mitis-salivarius (MS) agar plates and incubated in an environment of 5% CO2 at 37° C. to quantify the level of total bacteria and S. mutans present in the plaque. […] After drying, the mandibles were sectioned and scored for caries activity using the Keyes method^68. Caries scores were recorded for the buccal, sulcal and proximal molar surfaces individually so that differences among the surfaces can be distinguished. Statistical significance in the mean caries scores, colony-forming units (CFUs)/mandible and body weights between groups of rats were determined by one-way analysis of variance (ANOVA) with the Tukey-Kramer multiple comparison test using the InStat program (Graphpad Software, San Diego, CA). […]

Data set [2] in a line: Solubility in water containing 1% DMSO (UV spectroscopy). Type of data set: physicochemical. As to conditions: organic solvent or mixture; water containing 1% DMSO. As to the method: Solubility of MA1-6 and HA2-6 were determined as reported^46 (Table 1).
General considerations. ^1H-NMR and ^13C-NMR spectra were recorded on Bruker Avance Neo 400 and Avance II 700 spectrometers using TMS or appropriate solvent signals as internal standard. The chemical shift values are given in parts per million (ppm) relative to the internal standard used and the coupling constants (J) are given in hertz (Hz). High resolution mass spectra (HRMS) were recorded using Waters AutoSpec-Ultima™ NT magnetic sector mass spectrometer with Electron Impact (EI) Ionization source. The mass analyzer is an electric-magnetic-electric (EBE) sector (a double focusing sector). Anhydrous solvents used for reactions were purchased in Sure-Seal™ bottles from Aldrich chemical company. Other chemical reagents were purchased from Aldrich or Fisher chemical companies and used as received. Reactions were monitored with thin layer chromatography (TLC), which was done on silica gel plates with fluorescent indicator (Silicycle, silica gel, UV254, 25 μm plates). The TLC spots were observed under UV light with the wavelengths 254 nm and 365 nm. The reaction mixtures were purified by column chromatography using Si gel (32-63 μm) from Dynamic Absorbent, Inc. Melting points were determined on a Mel-Temp II melting point apparatus and are uncorrected. All tested compounds have ≥95% purity as determined by HPLC. HPLC traces were obtained using Shimadzu SPD-M20A. Solubility of compounds were determined by UV-spectroscopy method using Agilent Cary 60 UV-Vis spectrophotometer. HPLC analysis of the final compounds were conducted using Kinetex 5 μm C18 100 Å, LC Column 150×4.6 mm, compound=3 mM, 20 μL injection, solvent: mobile phase buffer, Conditions: 60% MeCN/40% H2O/0.1% Formic acid (isocratic), HPLC method 0-10 min, Signals were analyzed using a 254 nm UV detector. A chromatogram of Mobile Phase Buffer (20 μL) was obtained for comparison.

In brackets after ≈: the same amount, converted by molar mass.

The term solubility denotes the dissolved amount per volume that the medium holds. In turn, `O=C1/C(=C/c2cc(O)c(O)cc2O)Oc2ccccc21` [HA5, 2-[(2′,4′,5′-Trihydroxyphenyl)methylidene]-2,3-dihydro-1-benzofuran-3-one] came in with a Weight in data set [1] of 137 ± 13 g. The “weight loss” value in data set [1] (4-week treatment, 100 μM) was “did not experience any weight loss”. The solubility in data set [2] is 120 µg/mL (≈ 444 µM). With `O=C1/C(=C/c2cc(O)c(O)c(O)c2)Oc2ccccc21` [HA6, 2-[(3′,4′,5′-Trihydroxyphenyl)methylidene]-2,3-dihydro-1-benzofuran-3-one], the solubility in data set [2] was determined as 90.8 µg/mL (≈ 336 µM). Take `[F-].[Na+]` [NaF, reference compound]: the Weight in data set [1] is on record as 161 ± 13 g.
